In one assay the test system is 3×Tg-AD mice. The experiment in a line: Short-term memory in single alternation T-maze, 3×Tg-AD mice. In kind it is in vivo. The following applies: 10 mg/kg in saline 1 hr prior to testing, vs saline controls, p<0.001. Here is the method:
In this model, genes that cause Alzheimer's disease have been cloned from living Alzheimer's patients and then directly cloned into the genome of living mice to create Alzheimer mice (3×Tg-AD mice). […] (Oddo, S., et al., Triple-transgenic model of Alzheimer's disease with plaques and tangles: intracellular Abeta and synaptic dysfunction. Neuron, 2003; 39(3):409-21.)
Short-term memory was assessed in a well-accepted memory model (single alternation T-maze). In these studies, animals were administered 10 mg/kg PD2005 in saline 1 hr prior to testing and controls were administered only saline.

A further assay has as its target dopamine transporter (Homo sapiens, UniProt Q01959). The following applies: result in words; cited from earlier work.
A further assay has as its system patients with dementia. Conditions: Alzheimer's disease, frontotemporal dementia, vascular dementia; Dolder et al. review; cited from earlier work.

Structures are written as SMILES.

Sequence of dopamine transporter (Q01959 whole entry): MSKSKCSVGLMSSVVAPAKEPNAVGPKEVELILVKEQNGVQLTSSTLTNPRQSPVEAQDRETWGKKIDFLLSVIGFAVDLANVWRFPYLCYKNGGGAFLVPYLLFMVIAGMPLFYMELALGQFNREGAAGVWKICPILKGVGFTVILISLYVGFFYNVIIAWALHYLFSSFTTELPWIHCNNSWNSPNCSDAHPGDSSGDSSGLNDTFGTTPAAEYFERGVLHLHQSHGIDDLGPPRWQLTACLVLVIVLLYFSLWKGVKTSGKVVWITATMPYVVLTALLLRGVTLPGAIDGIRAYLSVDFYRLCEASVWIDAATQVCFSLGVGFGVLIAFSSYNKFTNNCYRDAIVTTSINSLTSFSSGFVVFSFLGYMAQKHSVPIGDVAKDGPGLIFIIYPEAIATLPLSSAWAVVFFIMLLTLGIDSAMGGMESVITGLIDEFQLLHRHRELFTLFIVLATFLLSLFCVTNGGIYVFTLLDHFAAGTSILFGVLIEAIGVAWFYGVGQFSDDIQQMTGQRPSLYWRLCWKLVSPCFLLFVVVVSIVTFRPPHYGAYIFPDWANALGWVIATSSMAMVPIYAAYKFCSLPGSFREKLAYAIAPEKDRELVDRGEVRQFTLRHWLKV

`C=CCN1C2CCC1CC(OC(c1ccc(F)cc1)c1ccc(F)cc1)C2` (stereo not drawn) [PD2005, N-allyl-4′,4″-difluoro-3α-diphenyl-methoxytropane]: the improvement in memory in the assay on 3×Tg-AD mice (first day of testing) worked out at 140%. For the same molecule, the memory improvement in the assay with 3×Tg-AD mice (following day of testing) was determined as 113%.

Consider `CN1[C@@H]2CC[C@H]1C[C@@H](OC(c1ccccc1)c1ccccc1)C2` [benztropine], for which the “affinity for the dopamine transporter” value at dopamine transporter is “high affinity”.

With `COC(=O)C(c1ccccc1)C1CCCCN1` (centres unmarked) [methylphenidate], the “effectiveness in patients with dementia” value with patients with dementia is reported as “not effective”.

Consider `CC(N)Cc1ccccc1` (centres unmarked) [amphetamine], for which, in the assay on patients with dementia, the “effectiveness in patients with dementia” value was “not effective”.

The record behind these values is patent US20150258077A1, “SUBSTITUTED B[…] FOR TREATMENT OF DEMENTIA” (P2D Inc., priority 2012, published 2015).
